# pIC50: −log10 of the molar value.
# What was measured:
# [1] = test system: human smooth muscle cells; test: Inhibition of human vascular cell proliferation with cladribine, PDGF-stimulated smooth muscle cells; type: cell-based
# Experimental: To assess the ability of cladribine to prevent cell proliferation, human smooth muscle or endothelial cells (Clonetics, Walkersville, Md.) were seeded at a density of 2000 cells/cm^2 (approximately 3600 cells/well) into each well of 12-well plates and cultured with 1.5 ml of growth medium containing five percent fetal calf serum (FCS). After twenty-four hours, the growth medium was changed and fresh medium containing 10 ng/ml platelet-derived growth factor AB (PDGF AB; LIFE Technologies), as well as various concentrations of cladribine (0.001-10,000 nM) were added with triplicate wells. Medium was replaced with fresh cladribine-containing medium after three days. On day six, cells were detached by trypsinization to yield a cell suspension, lightly centrifuged to pellet and then counted manually using a Neubauer hemocytometer system. Cell viability was assessed by trypan blue exclusion.
# [2] = test system: human coronary artery smooth muscle cells; test: Anti-proliferative activity in non-synchronized cultured human coronary artery smooth muscle cells stimulated with two percent fetal bovine serum; type: cell-based
# Description: The multiple curves represent various concentrations of mycophenolic acid ranging from zero to one thousand nanomolar concentrations.
# FIG. 58 illustrates, in graphical format, the anti-proliferative activity of cladribine in non-synchronized cultured human coronary artery smooth muscle cells stimulated with two percent fetal bovine serum.
# The multiple curves represent various concentrations of cladribine ranging from zero to nine hundred nanomolar concentrations.
# [3] = in vivo release kinetics from rapamycin / cladribine EVA/BMA coating, porcine pharmacokinetics studies; parameters: species or system Yorkshire pigs; conditions: EVA/BMA basecoat with 200 microgram BMA topcoat, Bx Velocity stents
# Description: The basecoat is applied to Bx Velocity® stents and implanted into Yorkshire pigs.
# The basecoat is applied to BxVelocity® stents and implanted into Yorkshire pigs.
# [4] = in vivo release kinetics from rapamycin / mycophenolic acid EVA/BMA coating, porcine pharmacokinetics studies; conditions: EVA/BMA basecoat, 180 micrograms each drug, BMA topcoat 0, 100 or 200 micrograms
# [5] = test system: human coronary artery smooth muscle cells; test: Anti-proliferative activity in synchronized cultured human coronary artery smooth muscle cells stimulated with two percent fetal bovine serum; type: cell-based; conditions: for effect on anti-proliferative rapamycin dose response curves: leftward and upward shift
# Description: (§1) The multiple curves represent various concentrations of topotecan ranging from zero to three hundred nanomolar concentrations.
# (§2) The multiple curves represent various concentrations of etoposide ranging from zero to eight hundred nanomolar concentrations.
# The multiple curves represent various concentrations of Panzem® ranging from zero to 100 micromolar concentrations.
# cell viability = cell viability assay; type: cell-based
# Description: as §1, §2
# [6] = drug concentration in liquid formulations (liquid chromatography / HPLC assay); type: physicochemical; conditions: 4 mg/ml PEG 200 formulation
# Description: In accordance with exemplary embodiments of the present invention, a series of liquid formulations were developed for the local or regional delivery of water insoluble compounds such as sirolimus and its analogs, including CCl-779, ABT-578 and everolimus, through weeping balloons and catheter injection needles. […] These liquid formulations increase the apparent solubility of the pharmacologically active but water insoluble compounds by two to four orders of magnitude as compared to the solubility limits of the compounds in water. These liquid formulations rely on the use of a very small amount of organic solvents such as Ethanol (typically less than two percent) and a larger amount of safe amphiphilic (of or relating to a molecule having a polar, water soluble group attached to a non-polar, water insoluble […]) excipients such as polyethylene glycol (PEG 200, PEG 400) and vitamin E TPGS to enhance the solubility of the compounds. These liquid formulations of highly water insoluble compounds are stable and readily flowable at room temperature. Certain excipients, such as Vitamin E TPGS and BHT may be utilized to enhance the storage stability of sirolimus compounds through their anti-oxidation properties. […]
# [7] = in vitro release of sirolimus and cilostazol from dual drug coating; type: physicochemical; conditions: single-layer sirolimus + cilostazol coating of FIG. 83
# [8] = test system: human coronary artery smooth muscle cell; test: in vitro cell culture study, coronary artery smooth muscle cell proliferation (trichostatin A); type: cell-based
# Description: FIG. 51 is a graph of the inhibition of coronary artery smooth muscle cells by trichostatin A in a cell culture study.
# tumor cell lines = conditions: Woo et al., J. Med Chem 2002; cited from earlier work
# [9] = test system: human coronary artery smooth muscle cell; conditions: concentrations up to 30,000.00 nanomolar (6.6 to 30,000.00 nanomolar tested)
# Description: In vitro cytotoxicity tests or assays may be utilized to determine if drugs, agents and/or compounds are potentially toxic and the level of toxicity. Essentially, in vitro cytotoxicity assays determine acute necrotic effects by a drug causing direct cellular damage. The idea behind these assays is that toxic chemicals affect basic functions of cells which are common to all cells. […] There are a number of different assays that may be utilized. In the present invention, the cytotoxicity assay utilized is based upon the measurement of cellular metabolic activity. A reduction in metabolic activity is an indication of cellular damage. Tests that can measure metabolic function measure cellular ATP levels or mitochondrial activity via MTS metabolism. FIG. 69 is a graphical representation of the results of an MTS assay of Panzem®.
# [10] = test system: human coronary artery smooth muscle cells; test: antiproliferative effects of PX867 on cultured human coronary artery smooth muscle cells; type: cell-based; conditions: PX867 alone, concentration of about 10^−6 (unit not given)
# Description: A PI3 kinase inhibitor can affect restinosis when administered by local or systemic delivery alone or in combination with sirolimus. FIGS. 87 and 88 illustrate the antiproliferative effects of PX867 on cultured human coronary artery smooth muscle cells alone (FIG. 87) or in combination with sirolimus (FIG. 88). […] Curve 8702 illustrates the percent inhibition for various concentrations. In FIG. 88, the six curves 8802, 8804, 8806, 8808, 8810 and 8812 represent various concentrations of PX867 with various concentrations of sirolimus. […] More specifically, curve 8812 illustrates the percent inhibition for a 240 nM PX-867 concentration. […] This may be compared to curve 8804 which represents a 15 nM PX-867 concentration. As one can see, the percent inhibition increases as the concentration of sirolimus increases. Accordingly, a potent PI3 kinase inhibitor, such as PX-867, can improve the inhibition of coronary artery smooth muscle cell proliferation either as a stand alone treatment or via combination with another restenotic agent, such as sirolimus.
compound,measurement,setting,value
"Nc1nc(Cl)nc2c1ncn2[C@H]1C[C@H](O)[C@@H](CO)O1 [Cladribine, 2-chlorodeoxyadenosine]",potency as inhibitor of smooth muscle cells relative to endothelial cells,[1],approximately twice
same,inhibition of human coronary artery smooth muscle cell proliferation,[2]; cladribine alone,completely inhibits human coronary artery smooth muscle cell proliferation
same,effect on anti-proliferative rapamycin dose response curves,"[2]; cladribine zero to nine hundred nanomolar added to rapamycin, leftward and upward shift",does in fact potentiate the anti-proliferative activity of rapamycin
same,in vivo elution compared with rapamycin,[3],elutes more rapidly than rapamycin
COc1c(C)c2c(c(O)c1C/C=C(\C)CCC(=O)O)C(=O)OC2 [mycophenolic acid],effect on anti-proliferative rapamycin dose response curve,"[2]; mycophenolic acid zero to one thousand nanomolar added to rapamycin, leftward and upward shift",potentiates the anti-proliferative activity of rapamycin
same,in vivo elution compared with rapamycin,[4],elutes more completely over a shorter duration than the rapamycin
COc1cc([C@@H]2c3cc4c(cc3[C@@H](O[C@@H]3O[C@@H]5CO[C@@H](C)O[C@H]5[C@H](O)[C@H]3O)[C@H]3COC(=O)[C@H]23)OCO4)cc(OC)c1O [etoposide],effect on anti-proliferative rapamycin dose response curves,[5]; etoposide zero to eight hundred nanomolar added to rapamycin,potentiate the anti-proliferative activity of rapamycin
same,cytotoxicity,cell viability; concentrations up to ten micromolar,non-cytotoxic
CO[C@H]1C[C@@H]2CC[C@@H](C)[C@@](O)(O2)C(=O)C(=O)N2CCCC[C@H]2C(=O)O[C@H]([C@H](C)C[C@@H]2CC[C@@H](O)[C@H](OC)C2)CC(=O)[C@H](C)/C=C(\C)[C@@H](O)[C@@H](OC)C(=O)[C@H](C)C[C@H](C)/C=C/C=C/C=C/1C [rapamycin],concentration relative to the solubility of sirolimus in water,[6],four hundred to about one thousand
"O=C1CCc2cc(OCCCCc3nnnn3C3CCCCC3)ccc2N1 [cilostazol, 6[4-(1-cyclohexyl-1H-tetrazol-5-yl)-butoxy]-3,4-dihydro-2-(1H)-quinolinone]",in vitro release,[7],~35%
CC(/C=C/C(=O)NO)=C\[C@@H](C)C(=O)c1ccc(N(C)C)cc1 [trichostatin A],inhibition of human coronary artery smooth muscle cell proliferation,[8],completely inhibit human coronary artery smooth muscle cell proliferation
same,pIC50,[8]; read-out: anti-proliferative IC50,~8.22
same,anti-proliferative IC50's,tumor cell lines,low nM range
"COc1cc2c(cc1O)CC[C@@H]1[C@@H]2CC[C@]2(C)[C@@H](O)CC[C@@H]12 [Panzem®, 2-methoxyestradiol]",anti-proliferative activity,[5]; Panzem alone,extremely effective inhibitor of human coronary artery smooth muscle cell proliferation in vitro
same,effect on percent inhibition by rapamycin,[5]; Panzem zero to 100 micromolar added to rapamycin,increases the percent of inhibition of rapamycin alone
same,"cytotoxicity (MTS assay), cell survival",[9],do not reduce human coronary artery smooth muscle cell survival
CC[C@@]1(O)C(=O)OCc2c1cc1n(c2=O)Cc2cc3c(CN(C)C)c(O)ccc3nc2-1 [topotecan],effect on anti-proliferative rapamycin dose response curves,[5]; topotecan zero to three hundred nanomolar added to rapamycin,does in fact potentiate the anti-proliferative activity of rapamycin
same,cytotoxicity,cell viability; concentrations up to one micromolar,non-cytotoxic
COC[C@H]1OC(=O)/C(=C\N2CCCC2)C2=C(O)C(=O)C3=C([C@H](OC(C)=O)C[C@]4(C)C(=O)CC[C@@H]34)[C@]21C [PX867],inhibition of coronary artery smooth muscle cell proliferation,[10],one hundred

# Reference: patent publication US20090074831A1, “LOCAL […] […] OF mTOR INHIBITORS IN COMBINATION WITH PEROXISOME PROLIFERATORS-ACTIVATED RECEPTOR STIMULATORS” (priority 2007, published 2009)
